From patent publication US9212204B2, “Treatment of rett syndrome using glycyl-L-2-methylprolyl-L-glutamic acid” (priority 2011, dated 2015)

Key:
wild type young mice = conditions: Tropea et al., 2006; cited from earlier work
[1] = tested on: cortical neurons injured with okadaic acid; assay: Okadaic acid injury of cortical cultures, MTT survival; format: cell-based, rat; conditions: 10 μM, 24 hours incubation, MTT-assay
Procedure: One cortical hemisphere from a postnatal day 1 rat was used and collected into 4 ml of DMEM. Trituration was performed using a 5 ml glass pipette and an 18-gauge needle. The cell suspension was sieved through a 100 μm cell strainer and washed in 50 ml DMEM (centrifugation for 5 min at 250 g). The sediment was resuspended in 20 ml DMEM+10% fetal calf serum. The suspension was added into two […] flasks (10 ml per flask) and cultivated at 37° C. in the presence of 10% CO2 followed by a change of the medium twice a week. When cells reached confluence, they were washed three times with PBS, adjusted to Neurobasal/B27 and incubated for another 3 days. This supernatant was frozen for transient storage at −80° C. […]
The cells were triturated once with a glass Pasteur pipette in 1 ml of Neurobasal/B27 medium and subsequently twice by using a 1 ml insulin syringe with a 22 gauge needle. […] Cells were counted and adjusted to 50,000 cells per 60 μl. […]
To cause toxic injury to neurons, we exposed neurons to 1:100 parts of okadaic acid at concentrations of 30 nM or 100 nM and 0.5 mM 3-nitropropionic acid (for cerebellar microexplants only). […] The survival rate was determined by a colorimetric end-point MTT-assay at 595 nm in a multi-well plate reader. For the cerebellar microexplants four windows (field of 0.65 mm^2) with highest cell density were chosen and cells displaying neurite outgrowth were counted.

MeCP2 knock-out mice = conditions: U.S. Publication No. 2009/0099077; cited from earlier work
[2] = Pharmacokinetics after intravenous bolus injection; format: in vivo, rat; conditions: 30 mg/kg single i.v. bolus; rat
Procedure: Adult male Wistar rats weighing between 180 and 240 g were used to determine the pharmacokinetics of GPE and […]. To facilitate intravenous bolus injections and blood sampling, all rats were surgically implanted with an indwelling jugular venous cannula under halothane anesthesia three days before the experiment. Groups of six rats were given a single intravenous bolus injection of either 30 mg/kg GPE or 10 mg/kg […] dissolved in 0.1M succinate buffer (pH 6.5). […] The samples were centrifuged at 3000 g for 15 min at 4° C. and the plasma removed and stored at -80° C. until extraction and assay by either radioimmunoassay (“RIA”) or reverse phase HPLC. The RIA and HPLC methods used were conventional. […] The k and half-life (t1/2) were calculated from the slope of the linear regression line in the elimination phase of the semi-logarithmic plot of plasma concentration versus time as: Log. C=-kt/2.3+log C0. Results were expressed as mean±standard error.

[3] = Degradation of GPE in vivo and in vitro

In the case of NCC(=O)N1CCC[C@H]1C(=O)N[C@@H](CCC(=O)O)C(=O)O [GPE, glycyl-L-prolyl-L-glutamic acid], the OD plasticity (wild type young mice) is listed as “reduce”, the neuroprotection [1] is listed as 64% and the “effect on life span” value (MeCP2 knock-out mice) is listed as “prolong life”. For the same compound, the “effect on neuronal function” value (MeCP2 knock-out mice) was “increase neuronal function”, the first order rate constant [2] was 0.15 ± 0.014 min⁻¹ and the degradation [3] was “rapidly degraded”.
